Assay results: patent US11278524B2, “Formulations and methods for the treatment of cancers” (Stemirna (Shanghai) Biotechnology Co. LTED., priority 2018, dated 2022)

Tests used:
[1] = test system: LNCaP AI-tumors; experiment: Therapy of mice bearing LNCaP androgen-independent (AI) tumors; type: in vivo
[2] = test system: LAPC4 androgen-independent tumors; experiment: Therapy of castrated mice bearing LAPC4 androgen-independent tumors; type: in vivo
Procedure: (§1) The xenograft models—LAPC9, LAPC4, LNCaP, and VCaP were serially passaged in castrated male NOD/SCID-γ mice (NSG; for LNCaP or NOD/SCID for the other models). The tumors were then harvested for western blot analysis for androgen receptor, androgen receptor-target molecules, cancer stem cell (CSC) and castration resistance (CR) markers. PC3 cells were used as a negative control for androgen receptors. 60 μg of whole cell lysate was loaded in each lane. GADPH was run as the loading controls (top and bottom panels).
To determine whether targeting cyt-AR in these tumors would be effective in reducing tumor burden, castrated mice bearing LAPC4 androgen-independent tumors were administered enzalutamide as indicated (FIG. 5B), and the tumor volume measured.
However, starting from ˜6.5-7 weeks, tumors resumed growth, indicative of resistance to enzalutamide. […] This opens the possibility of employing combinatorial approaches that target androgen receptor (Enzalutamide) together molecules such as Bcl2 (Venetoclax).

[3] = test system: LAPC9 androgen-independent tumors; experiment: Therapy of LAPC9 androgen-independent tumors; type: in vivo, mice
Procedure: as §1
To determine the sensitivity of LAPC9 androgen-independent tumors to enzalutamide, therapy experiments were performed as described for the LNCaP primary AI tumors (FIG. 3). […] To determine whether blocking alternate pathways regulated by any of these high expressing proteins, in the Enzalutamide resistant LAPC9 androgen-independent tumors, affects tumor burden, therapy experiments were performed with the Bromodomain and Extra-Terminal protein (a upstream regulator of Myc transcription) inhibitor, JQ1. The integrin α2β1 inhibitor, Compound 15 (142,143) was used as a positive control.

[4] = enzalutamide-resistant LAPC4 tumors, western blot
[5] = enzalutamide-resistant LAPC9 AI tumors

With `CNC(=O)c1ccc(N2C(=S)N(c3ccc(C#N)c(C(F)(F)F)c3)C(=O)C2(C)C)cc1F` [Enzalutamide, 4-(3-(4-Cyano-3-(trifluoromethyl)phenyl)-5,5-dimethyl-4-oxo-2-thioxoimidazolidin-1-yl)-2-fluoro-N-methylbenzamide] the “Bcl-2 expression in response to enzalutamide” value ([1]; among CSC and castration resistance markers, western blot) was “most prominent upregulation”, the “duration of growth suppression” value ([1]; enzalutamide i.p.) was 6.5 weeks and the “time at which no further response to enzalutamide was observed (emergence of enzalutamide-resistant tumors)” value ([1]; enzalutamide i.p.) was “about 7 weeks”. For the same compound, the “growth of androgen-independent LNCaP tumors” value ([1]; enzalutamide i.p., vehicle corn oil) was “suppressed growth”, the FKBP5 expression ([1]; enzalutamide-resistant secondary LNCaP CR tumors, western blot) was “decreased” and the PSA expression ([1]; enzalutamide-resistant secondary LNCaP CR tumors, western blot and IHC) was “decreased”. The E-cadherin expression [2, 4] was “slight increases”, the “levels of GR, N-cadherin, Bcl-2 and integrin α2” value [2, 4] was “continued to express high levels” and the androgen receptor localization ([2]; enzalutamide-resistant tumors, immuno-histochemistry) was “still largely in the cytoplasm”. For the same compound, the “tumor growth compared to vehicle (corn oil) control” value ([2]; first 2-3 weeks) was “grew significantly slower”, the “time from which tumors resumed growth (resistance to enzalutamide)” value ([2]; mouse, in vivo) was 6.5-7 weeks and the “growth of enzalutamide-resistant cyto-AR+ LAPC4 tumors” value ([2]; up to 13 weeks, compared with enzalutamide-resistant LNCaP tumors) was “grew relatively slow”. For the same compound, the FKBP5 levels ([3]; both vehicle and treatment groups, western blot) was “greatly diminished”, the “levels of integrin α2, c-Myc, N-cadherin, Bcl-2 and p-ERK1/2” value ([3]; enzalutamide-treated tumors, western blot) was “continued to express high levels” and the “response of tumors to enzalutamide (tumor volume)” value ([3]; primary AI tumors, vehicle corn oil) was “refractory”. For the same compound, the “expression of androgen receptors and PSA” value ([3]; western blot and IHC of endpoint tumors) was “no expression”.
`Cc1sc2c(c1C)C(c1ccc(Cl)cc1)=N[C@@H](CC(=O)OC(C)(C)C)c1nnc(C)n1-2` [JQ1, (S)-tert-butyl 2-(4-(4-chlorophenyl)-2,3,9-trimethyl-6H-thieno[3,2-f][1,2,4]triazolo[4,3-a][1,4]diazepin-6-yl)acetate] was tested, and the tumor growth [3, 5] was “significantly inhibited tumor growth” and the tumor incidence [3, 5] was “not tumor incidence”.
For `CC#C[C@]1(O)CC[C@H]2[C@@H]3CCC4=CC(=O)CCC4=C3[C@@H](c3ccc(N(C)C)cc3)C[C@@]21C` [mifepristone], the “emergence (incidence) of LNCaP secondary castration resistant prostate cancer” value ([1]; combination with enzalutamide given simultaneously, LNCaP primary AI tumors, P<0.0001, χ2 test for venetoclax combination) was “without reducing incidence” and the tumor growth ([1]; combination with enzalutamide, LNCaP primary AI tumors) was “inhibited tumor growth”.
